Assay: xn = mol fraction of the nth substance listed
Settings: Liquid, Vibrating tube method

CCCCCCCCCCCC [dodecane] + CCCCCCCCCC
Settings | mass density [kg/m3]
303.31 K, 1000 kPa, x2 = 0.2297 | 739
303.32 K, 5000 kPa, x2 = 0.2297 | 742
303.32 K, 10000 kPa, x2 = 0.2297 | 745
303.33 K, 20000 kPa, x2 = 0.2297 | 752
303.33 K, 30000 kPa, x2 = 0.2297 | 759
303.34 K, 40000 kPa, x2 = 0.2297 | 765
303.35 K, 100 kPa, x2 = 0.2297 | 738
303.35 K, 60000 kPa, x2 = 0.2297 | 775
303.35 K, 80000 kPa, x2 = 0.2297 | 785
303.35 K, 100000 kPa, x2 = 0.2297 | 794
303.39 K, 100 kPa, x2 = 0.4436 | 734
303.39 K, 1000 kPa, x2 = 0.4436 | 735
303.39 K, 5000 kPa, x2 = 0.4436 | 738
303.39 K, 10000 kPa, x2 = 0.4436 | 742
303.41 K, 20000 kPa, x2 = 0.4436 | 749
303.41 K, 40000 kPa, x2 = 0.4436 | 761
303.41 K, 80000 kPa, x2 = 0.4436 | 782
303.41 K, 99990 kPa, x2 = 0.4436 | 791
303.42 K, 30000 kPa, x2 = 0.4436 | 755
303.42 K, 60000 kPa, x2 = 0.4436 | 772
303.43 K, 100 kPa, x2 = 0.6433 | 730
303.43 K, 1000 kPa, x2 = 0.6433 | 731
303.43 K, 20000 kPa, x2 = 0.6433 | 745
303.43 K, 30000 kPa, x2 = 0.6433 | 752
303.43 K, 40000 kPa, x2 = 0.6433 | 758
303.43 K, 60000 kPa, x2 = 0.6433 | 769
303.43 K, 80000 kPa, x2 = 0.6433 | 779
303.43 K, 100000 kPa, x2 = 0.6433 | 788
303.44 K, 5000 kPa, x2 = 0.6433 | 734
303.44 K, 10000 kPa, x2 = 0.6433 | 738
303.45 K, 100 kPa, x2 = 0.7841 | 727
303.45 K, 10000 kPa, x2 = 0.7841 | 735
303.45 K, 20000 kPa, x2 = 0.7841 | 742
303.45 K, 30000 kPa, x2 = 0.7841 | 749
303.45 K, 40000 kPa, x2 = 0.7841 | 755
303.45 K, 60000 kPa, x2 = 0.7841 | 766
303.45 K, 80000 kPa, x2 = 0.7841 | 776
303.45 K, 100000 kPa, x2 = 0.7841 | 785
303.46 K, 1000 kPa, x2 = 0.7841 | 728
303.47 K, 5000 kPa, x2 = 0.7841 | 731
312.89 K, 100 kPa, x2 = 0 | 736
312.89 K, 1000 kPa, x2 = 0 | 737
312.9 K, 5000 kPa, x2 = 0 | 740
312.9 K, 10000 kPa, x2 = 0 | 744
312.9 K, 20000 kPa, x2 = 0 | 751
312.9 K, 30000 kPa, x2 = 0 | 757
312.9 K, 40000 kPa, x2 = 0 | 763
312.9 K, 50000 kPa, x2 = 0 | 769
312.9 K, 60000 kPa, x2 = 0 | 774
312.9 K, 70000 kPa, x2 = 0 | 780
312.9 K, 80000 kPa, x2 = 0 | 784
312.9 K, 90000 kPa, x2 = 0 | 789
312.9 K, 100000 kPa, x2 = 0 | 793
313.23 K, 100 kPa, x2 = 0.2297 | 732
313.24 K, 1000 kPa, x2 = 0.2297 | 732
313.24 K, 5000 kPa, x2 = 0.2297 | 736
313.24 K, 10000 kPa, x2 = 0.2297 | 740
313.24 K, 20000 kPa, x2 = 0.2297 | 747
313.24 K, 30000 kPa, x2 = 0.2297 | 753
313.24 K, 40000 kPa, x2 = 0.2297 | 760
313.24 K, 60000 kPa, x2 = 0.2297 | 771
313.25 K, 80000 kPa, x2 = 0.2297 | 781
313.25 K, 100000 kPa, x2 = 0.2297 | 790
313.3 K, 30000 kPa, x2 = 0.4436 | 750
313.3 K, 40000 kPa, x2 = 0.4436 | 756
313.3 K, 100000 kPa, x2 = 0.4436 | 787
313.31 K, 100 kPa, x2 = 0.4436 | 728
313.31 K, 1000 kPa, x2 = 0.4436 | 729
313.31 K, 10000 kPa, x2 = 0.4436 | 736
313.31 K, 20000 kPa, x2 = 0.4436 | 743
313.31 K, 60000 kPa, x2 = 0.4436 | 767
313.31 K, 80000 kPa, x2 = 0.4436 | 778
313.32 K, 5000 kPa, x2 = 0.4436 | 732
313.36 K, 100 kPa, x2 = 0.6433 | 724
313.36 K, 1000 kPa, x2 = 0.6433 | 725
313.36 K, 10000 kPa, x2 = 0.6433 | 732
313.36 K, 20000 kPa, x2 = 0.6433 | 740
313.37 K, 100 kPa, x2 = 0.7841 | 721
313.37 K, 1000 kPa, x2 = 0.7841 | 722
313.37 K, 5000 kPa, x2 = 0.6433 | 728
313.37 K, 5000 kPa, x2 = 0.7841 | 725
313.37 K, 10000 kPa, x2 = 0.7841 | 729
313.37 K, 30000 kPa, x2 = 0.6433 | 746
313.37 K, 40000 kPa, x2 = 0.6433 | 753
313.37 K, 40000 kPa, x2 = 0.7841 | 750
313.37 K, 60000 kPa, x2 = 0.7841 | 762
313.37 K, 80000 kPa, x2 = 0.7841 | 772
313.38 K, 20000 kPa, x2 = 0.7841 | 737
313.38 K, 30000 kPa, x2 = 0.7841 | 744
313.38 K, 60000 kPa, x2 = 0.6433 | 764
313.38 K, 80000 kPa, x2 = 0.6433 | 774
313.38 K, 100000 kPa, x2 = 0.6433 | 784
313.38 K, 100000 kPa, x2 = 0.7841 | 781
322.83 K, 100 kPa, x2 = 0 | 727
322.83 K, 1000 kPa, x2 = 0 | 728
322.83 K, 5000 kPa, x2 = 0 | 732
322.83 K, 10000 kPa, x2 = 0 | 736
322.83 K, 20000 kPa, x2 = 0 | 743
322.83 K, 30000 kPa, x2 = 0 | 750
322.83 K, 40000 kPa, x2 = 0 | 756
322.83 K, 50000 kPa, x2 = 0 | 762
322.83 K, 60000 kPa, x2 = 0 | 768
322.83 K, 70000 kPa, x2 = 0 | 773
322.83 K, 80000 kPa, x2 = 0 | 778
322.83 K, 90000 kPa, x2 = 0 | 783
322.83 K, 100000 kPa, x2 = 0 | 787
323.08 K, 100 kPa, x2 = 0.2297 | 723
323.08 K, 1000 kPa, x2 = 0.2297 | 724
323.08 K, 5000 kPa, x2 = 0.2297 | 727
323.08 K, 10000 kPa, x2 = 0.2297 | 731
323.08 K, 20000 kPa, x2 = 0.2297 | 739
323.08 K, 30000 kPa, x2 = 0.2297 | 746
323.08 K, 40000 kPa, x2 = 0.2297 | 752
323.09 K, 100 kPa, x2 = 0.4436 | 719
323.09 K, 60000 kPa, x2 = 0.2297 | 764
323.09 K, 80000 kPa, x2 = 0.2297 | 774
323.09 K, 100010 kPa, x2 = 0.2297 | 784
323.1 K, 1000 kPa, x2 = 0.4436 | 720
323.1 K, 5000 kPa, x2 = 0.4436 | 724
